# Laboratory results published in patent publication US20260265538A1, “Aqueous Industrial Product Stabilized Against Microbial Contamination” (Thor GmbH, priority 2023, published 2026).
# Test system: Bacteria mixture 2 (alkaliphilic bacteria of the Nesterenkonia & Alkalibacterium genus)
# Test: Repetitive stress test of paints with bacteria mixture 2, semiquantitative evaluation (examples 4 and 5)
# Type: cell-based
# Set-up: key to Bacterial growth after inoculation: 0: No growth; Minimal growth, 1 to 10 colonies visible over the entire streak; 2: Light growth, maximum 100 colonies; Moderate growth, maximum 300 to 400 colonies; Uniform growth, >400 colonies, single colonies still clearly recognizable; 5: Heavy growth, too many colonies to count, but no growth over the entire streak; 6: Full growth, barely any single colonies still apparent, growth over the entire streak
# Text: Paints 1 to 3 were mixed and homogenized with various concentrations of the guanidinium salts to be tested.
# The batches obtained of the paint thus prepared were inoculated repeatedly with a mixture of different wild-type bacterial strains that are of practical relevance with regard to contamination. These bacteria had previously been isolated from commercial emulsion paints containing conventional preservatives (bacteria mixture 1, Pseudomonas genus), which are microbially contaminated in practice, and commercial so-called preservative-free alkaline emulsion paints (bacteria mixture 2, alkaliphilic bacteria of the Nesterenkonia & Alkalibacterium genus), which are microbially contaminated in practice.
# • Nesterenkonia sp. DSM 108520 • Nesterenkonia sp. DSM 108521 • Alkalibacterium pelagium DSM 108522 • Nesterenkonia massiliensis DSM 110679 • Nesterenkonia sp. DSM 108519
# The inoculum was added to the respective sample in each inoculation at 2% (v/w) as a fresh cell suspension in a physiological saline solution (0.9% NaCl). The cell count of the added inoculum in example 1 was 10^5/ml, in examples 2 to 5 10^9/ml, and in example 6 10^6/ml, each in equal portions consisting of the individual bacterial strains. The cell suspension was produced by growing the individual bacteria at 30° C. for 24 h in liquid culture on a shaker. The medium used to grow the bacteria from bacteria mixture 1 was Müller-Hinton liquid medium. Bacteria from bacteria mixture 2 were grown in Müller-Hinton liquid medium that had been adjusted to pH 9.5-9.7 with an alkaline buffer solution beforehand. After growing, the individual liquid cultures were centrifuged, and the cells were resuspended in physiological saline solution. In order to adjust the mixture to the desired cell count, the individual bacteria suspensions, if necessary, were diluted accordingly before being combined with saline solution. The cell count of the inoculum was determined in each case by chamber counting.
# In examples 2 to 6, what is called a repetitive stress test with bacteria was conducted by inoculating the samples at particular time intervals repeatedly with a bacteria suspension having a cell count of 10^9/ml (2% v/w) and monitoring the evolution of the bacteria by a semiquantitative evaluation method. After each inoculation, the samples were incubated at 30° C. for 6 days (bacteria mixture 1 and 3) or 7 and 14 days (bacteria mixture 2), and after these periods bacterial infestation was evaluated semiquantitatively in each case. For this purpose, an aliquot was taken from each sample after homogenization using a sterile plastic inoculation loop (10 μl) and streaked evenly on agar plates (bacteria mixture 1 and 3 on tryptic soy agar, bacteria mixture 2 on DSMZ 31 alkaline nutrient agar). The streaked agar plates were then incubated at 30° C. for 48 h (bacteria mixture 1 and 3) or 5 to 7 days (bacteria mixture 2). After incubation, the bacterial colonies grown on the agar plates were visually evaluated and quantified according to the following scheme:
# A total of 3 inoculation cycles was performed in each repetitive stress test.
# Inoculation 2% (w/v) with Bacteria Mixture 2, 10^9 CFU/ml
structure (smiles),measurement,setting,value
N=C(N)N.N=C(N)N.O=C(O)O [guanidine carbonate],Bacterial growth after inoculation,"Table 4, Paint 2, +0.1% guanidine carbonate (656 ppm guanidine), pH 8.9, 2. inoculation, 14 d","4 (Uniform growth, >400 colonies, single colonies still clearly recognizable)"
same,Bacterial growth after inoculation,"Table 4, Paint 2, +0.1% guanidine carbonate (656 ppm guanidine), pH 8.9, 3. inoculation, 7 d",6/6
same,Bacterial growth after inoculation,"Table 4, Paint 2, +0.1% guanidine carbonate (656 ppm guanidine), pH 8.9, 3. inoculation, 14 d",6/6
same,Bacterial growth after inoculation,"Table 4, Paint 2, +0.15% guanidine carbonate (984 ppm guanidine), pH 9.0, 1. inoculation, 7 d",0/0
same,Bacterial growth after inoculation,"Table 4, Paint 2, +0.15% guanidine carbonate (984 ppm guanidine), pH 9.0, 1. inoculation, 14 d",0/0
same,Bacterial growth after inoculation,"Table 4, Paint 2, +0.15% guanidine carbonate (984 ppm guanidine), pH 9.0, 2. inoculation, 7 d","2 (Light growth, maximum 100 colonies)"
same,Bacterial growth after inoculation,"Table 4, Paint 2, +0.15% guanidine carbonate (984 ppm guanidine), pH 9.0, 2. inoculation, 14 d","1 (Minimal growth, 1 to 10 colonies visible over the entire streak)"
same,Bacterial growth after inoculation,"Table 4, Paint 2, +0.15% guanidine carbonate (984 ppm guanidine), pH 9.0, 3. inoculation, 7 d",6/6
same,Bacterial growth after inoculation,"Table 4, Paint 2, +0.15% guanidine carbonate (984 ppm guanidine), pH 9.0, 3. inoculation, 14 d",6/6
same,Bacterial growth after inoculation,"Table 4, Paint 2, +0.2% guanidine carbonate (1312 ppm guanidine), pH 9.1, 1. inoculation, 7 d",0/0
same,Bacterial growth after inoculation,"Table 4, Paint 2, +0.2% guanidine carbonate (1312 ppm guanidine), pH 9.1, 1. inoculation, 14 d",0/0
same,Bacterial growth after inoculation,"Table 4, Paint 2, +0.2% guanidine carbonate (1312 ppm guanidine), pH 9.1, 2. inoculation, 7 d",0/0
same,Bacterial growth after inoculation,"Table 4, Paint 2, +0.2% guanidine carbonate (1312 ppm guanidine), pH 9.1, 2. inoculation, 14 d",0/0
same,Bacterial growth after inoculation,"Table 4, Paint 2, +0.2% guanidine carbonate (1312 ppm guanidine), pH 9.1, 3. inoculation, 7 d",6/6
same,Bacterial growth after inoculation,"Table 4, Paint 2, +0.2% guanidine carbonate (1312 ppm guanidine), pH 9.1, 3. inoculation, 14 d",6/6
same,Bacterial growth after inoculation,"Table 4, Paint 2, +0.25% guanidine carbonate (1640 ppm guanidine), pH 9.1, 1. inoculation, 7 d",0/0
same,Bacterial growth after inoculation,"Table 4, Paint 2, +0.25% guanidine carbonate (1640 ppm guanidine), pH 9.1, 1. inoculation, 14 d",0/0
same,Bacterial growth after inoculation,"Table 4, Paint 2, +0.25% guanidine carbonate (1640 ppm guanidine), pH 9.1, 2. inoculation, 7 d",0/0
same,Bacterial growth after inoculation,"Table 4, Paint 2, +0.25% guanidine carbonate (1640 ppm guanidine), pH 9.1, 2. inoculation, 14 d",0/0
same,Bacterial growth after inoculation,"Table 4, Paint 2, +0.25% guanidine carbonate (1640 ppm guanidine), pH 9.1, 3. inoculation, 7 d",0/0
same,Bacterial growth after inoculation,"Table 4, Paint 2, +0.25% guanidine carbonate (1640 ppm guanidine), pH 9.1, 3. inoculation, 14 d",0/0
same,Bacterial growth after inoculation,"Table 4, Paint 2, +0.3% guanidine carbonate (1968 ppm guanidine), pH 9.2, 1. inoculation, 7 d",0/0
same,Bacterial growth after inoculation,"Table 4, Paint 2, +0.3% guanidine carbonate (1968 ppm guanidine), pH 9.2, 1. inoculation, 14 d",0/0
same,Bacterial growth after inoculation,"Table 4, Paint 2, +0.3% guanidine carbonate (1968 ppm guanidine), pH 9.2, 2. inoculation, 7 d",0/0
same,Bacterial growth after inoculation,"Table 4, Paint 2, +0.3% guanidine carbonate (1968 ppm guanidine), pH 9.2, 2. inoculation, 14 d",0/0
same,Bacterial growth after inoculation,"Table 4, Paint 2, +0.3% guanidine carbonate (1968 ppm guanidine), pH 9.2, 3. inoculation, 7 d",0/0
same,Bacterial growth after inoculation,"Table 4, Paint 2, +0.3% guanidine carbonate (1968 ppm guanidine), pH 9.2, 3. inoculation, 14 d",0/0
same,Bacterial growth after inoculation,"Table 4, Paint 2, +0.4% guanidine carbonate (2624 ppm guanidine), pH 9.3, 1. inoculation, 7 d",0/0
same,Bacterial growth after inoculation,"Table 4, Paint 2, +0.4% guanidine carbonate (2624 ppm guanidine), pH 9.3, 1. inoculation, 14 d",0/0
same,Bacterial growth after inoculation,"Table 4, Paint 2, +0.4% guanidine carbonate (2624 ppm guanidine), pH 9.3, 2. inoculation, 7 d",0/0
same,Bacterial growth after inoculation,"Table 4, Paint 2, +0.4% guanidine carbonate (2624 ppm guanidine), pH 9.3, 2. inoculation, 14 d",0/0
same,Bacterial growth after inoculation,"Table 4, Paint 2, +0.4% guanidine carbonate (2624 ppm guanidine), pH 9.3, 3. inoculation, 7 d",0/0
same,Bacterial growth after inoculation,"Table 4, Paint 2, +0.4% guanidine carbonate (2624 ppm guanidine), pH 9.3, 3. inoculation, 14 d",0/0
same,Bacterial growth after inoculation,"Table 4, Paint 2, +0.5% guanidine carbonate (3280 ppm guanidine), pH 9.4, 1. inoculation, 7 d",0/0
same,Bacterial growth after inoculation,"Table 4, Paint 2, +0.5% guanidine carbonate (3280 ppm guanidine), pH 9.4, 1. inoculation, 14 d",0/0
same,Bacterial growth after inoculation,"Table 4, Paint 2, +0.5% guanidine carbonate (3280 ppm guanidine), pH 9.4, 2. inoculation, 7 d",0/0
same,Bacterial growth after inoculation,"Table 4, Paint 2, +0.5% guanidine carbonate (3280 ppm guanidine), pH 9.4, 2. inoculation, 14 d",0/0
same,Bacterial growth after inoculation,"Table 4, Paint 2, +0.5% guanidine carbonate (3280 ppm guanidine), pH 9.4, 3. inoculation, 7 d",0/0
same,Bacterial growth after inoculation,"Table 4, Paint 2, +0.5% guanidine carbonate (3280 ppm guanidine), pH 9.4, 3. inoculation, 14 d",0/0
same,Bacterial growth after inoculation,"Table 4, Paint 2, +1.0% guanidine carbonate (6560 ppm guanidine), pH 9.8, 1. inoculation, 7 d",0/0
same,Bacterial growth after inoculation,"Table 4, Paint 2, +1.0% guanidine carbonate (6560 ppm guanidine), pH 9.8, 1. inoculation, 14 d",0/0
same,Bacterial growth after inoculation,"Table 4, Paint 2, +1.0% guanidine carbonate (6560 ppm guanidine), pH 9.8, 2. inoculation, 7 d",0/0
same,Bacterial growth after inoculation,"Table 4, Paint 2, +1.0% guanidine carbonate (6560 ppm guanidine), pH 9.8, 2. inoculation, 14 d",0/0
same,Bacterial growth after inoculation,"Table 4, Paint 2, +1.0% guanidine carbonate (6560 ppm guanidine), pH 9.8, 3. inoculation, 7 d",0/0
same,Bacterial growth after inoculation,"Table 4, Paint 2, +1.0% guanidine carbonate (6560 ppm guanidine), pH 9.8, 3. inoculation, 14 d",0/0
same,Bacterial growth after inoculation,"Table 5, Paint 3, +0.15% guanidine carbonate (984 ppm guanidine), pH 11.2, 1. inoculation, 7 d","3 (Moderate growth, maximum 300 to 400 colonies)"
same,Bacterial growth after inoculation,"Table 5, Paint 3, +0.15% guanidine carbonate (984 ppm guanidine), pH 11.2, 1. inoculation, 14 d",0
same,Bacterial growth after inoculation,"Table 5, Paint 3, +0.15% guanidine carbonate (984 ppm guanidine), pH 11.2, 2. inoculation, 7 d","3 (Moderate growth, maximum 300 to 400 colonies)"
same,Bacterial growth after inoculation,"Table 5, Paint 3, +0.15% guanidine carbonate (984 ppm guanidine), pH 11.2, 2. inoculation, 14 d",0
same,Stabilization of the paint against microbial infestation,"table 4, addition of 0.1% by weight to paint 1 having a pH of 9.1 or greater",distinct stabilization
same,Stabilization of the paint against microbial infestation,"table 4, addition of 0.1% by weight to paint 2 having a pH of 8.9 or greater",distinct stabilization
same,Stabilization of the paint against microbial infestation,"table 5, paint having a pH of pH 11.2, addition of 0.1% by weight",distinct stabilization
